Marks after values point to notes of the source that are not given here.
How the values were obtained:
Format in all cases: in vivo
[1] = system: C57BL/6J mice on high-fat diet (HFD); experiment: Blood parameters (glucose, insulin, TG, FFA, TC, leptin, adiponectin) in HFD mice; conditions: for Blood parameters Adiponectin / Blood parameters FFA / Blood parameters Leptin / Blood parameters TC / blood level of glucose / blood level of insulin: 4 weeks
Procedure: (§1) The following experiment was performed and approved by the guidelines of the Institutional Animal Care and Use Committee of Central Taiwan University of Science and Technology. The 4-week old male C57BL/6J mice (total amount n=63) were purchased from the National Laboratory Animal Breeding and Research Center (Taipei, Taiwan). After acclimatization for one week, all of the mice were divided randomly into the control (CON) group and the high-fat diet (HFD) group. […] After HFD exposure for 8 weeks, the HFD group was further randomly subdivided into 6 groups (n=9 per group) to receive different treatments by oral gavage once daily for four weeks and on HFD. […] The HF+B1, HF+B2, and […] are collectively termed BB-treated HFD groups in the following examples. The CON mice were administered vehicle. After dosing for 4 weeks, the mice were given no food at night and sacrificed after 12 h of fasting on the next day. All of the individual tissues were collected and weighed, and portions were instantly frozen using liquid nitrogen and kept at −80° C. for subsequent target gene analysis. Blood samples (0.8 mL) were collected for analysis of blood parameters.
A portion of the blood samples obtained from the retro-orbital sinus of fasted mice were immediately used to measure blood glucose levels using Sidekick glucose analyzer (YSI 1500, YSI Incorporated, Yellow Springs, USA) according to the glucose oxidase method. Heparin (30 units/mL, Sigma) was added into other portions of the blood samples. […] Concentrations of plasma triglycerides (TG), total cholesterol (TC), and free fatty acids (FFA) were determined using commercial assay kits according to the manufacturer's instructions (Triglycerides-E test, Cholesterol-E test, and FFA-C test, Wako Pure Chemical, Osaka, Japan). Plasma insulin, leptin, and adiponectin levels were assessed using commercial assay kits according to the manufacturer's instructions (mouse insulin ELISA kit, Mercodia, Uppsala, Sweden; mouse leptin ELISA kit, Morinaga, Yokohama, Japan; Mouse Adiponectin ELISA kit, Crystal Chem International, Downers Grove, Ill., USA).

hepatocytes of HFD mice = experiment: Histology of liver tissue (hepatocellular ballooning); conditions: 4 weeks, grade 0 absence, 1 a few cells
Procedure: The following experiment was performed and approved by the guidelines of the Institutional Animal Care and Use Committee of Central Taiwan University of Science and Technology. The 4-week old male C57BL/6J mice (total amount n=63) were purchased from the National Laboratory Animal Breeding and Research Center (Taipei, Taiwan). After acclimatization for one week, all of the mice were divided randomly into the control (CON) group and the high-fat diet (HFD) group. For the following 12 weeks, the CON group (n=9) was kept on a low-fat diet (Diet 12450B, Research Diets, Inc., New Brunswick, N.J., USA), while the HFD group (n=54) was exposed to a high-fat diet (Diet 12451, Research Diets, New Brunswick, N.J., USA). The low-fat diet was composed of protein 20%, carbohydrate 70% and fat 10%, whereas the high-fat diet was composed of protein 20%, carbohydrate 35%, and fat 45% (of total energy, % kcal). After HFD exposure for 8 weeks, the HFD group was further randomly subdivided into 6 groups (n=9 per group) to receive different treatments by oral gavage once daily for four weeks and on HFD. […] The HF+B1, HF+B2, and […] are collectively termed BB-treated HFD groups in the following examples. The CON mice were administered vehicle. After dosing for 4 weeks, the mice were given no food at night and sacrificed after 12 h of fasting on the next day. All of the individual tissues were collected and weighed, and portions were instantly frozen using liquid nitrogen and kept at −80° C. for subsequent target gene analysis. Blood samples (0.8 mL) were collected for analysis of blood parameters.
Small pieces of epididymal white adipose tissue and liver tissue were fixed with formalin (200 g/kg) neutral buffered solution and embedded in paraffin. Sections of 8 μm […] were cut and stained with hematoxylin and eosin. For microscopic examination, a microscope (Leica, DM2500) was used, and the images were taken using a Leica Digital Camera (DFC-425-C).
Based on previous report, the designation of histological hepatocellular ballooning findings include grade 0 for absence of degeneration, grade 1 for degeneration in a few cells, and […] for degeneration in many cells.

PEPCK = experiment: Semi-quantitative RT-PCR of liver mRNA: PEPCK; conditions: HFD mice, 4 weeks, vs HF group
Procedure: as §1
(§2) Total RNA from liver tissue of mice was isolated with a Trizol Reagent (Molecular Research Center, Inc., Cincinnati, Ohio, USA) according to the manufacturer's instructions. The integrity of the extracted total RNA was examined by 2% agarose gel electrophoresis, and the RNA concentration was determined by the ultraviolet (UV) light absorbency at 260 nm and 280 nm (Spectrophotometer U-2800A, Hitachi). The quality of the RNA was confirmed by ethidium bromide staining of 18S and 28S ribosomal RNA after electrophoresis on 2% agarose gel containing 6% formaldehyde.
(§3) Levels of mRNA of genes of interest were quantified by semi-quantitative reverse transcription polymerase chain reaction (RT-PCR). […] PCR products were analyzed by 2% agarose gels and stained with ethidium bromide.

GPAT = experiment: Semi-quantitative RT-PCR of liver mRNA: GPAT; conditions: HFD mice, 4 weeks, vs HF group
Procedure: as §1, §2, §3

[2] = 10 mg/kg/day oral gavage, vs HF group
[3] = 20 mg/kg/day oral gavage, vs HF group
[4] = 40 mg/kg/day oral gavage, vs HF group

OCC1O[C@@H](O[C@@H]2Cc3c(O)cc(O)cc3O[C@@H]2c2ccc(O)c(O)c2)C(O)C(O)[C@@H]1O (single isomer, unassigned; (-)) [compound of formula I, (−)-epicatechin-3-O-β-D-allopyranoside]
Blood parameters Adiponectin ([1]; 10 mg/kg/day oral gavage): 2.895 ± 0.010^f μg/mL
Blood parameters FFA ([1]; 10 mg/kg/day oral gavage): 1.11 ± 0.13^d mEq/L
Blood parameters Leptin ([1]; 10 mg/kg/day oral gavage): 1.662 ± 0.009^f ng/mL
Blood parameters TC ([1]; 10 mg/kg/day oral gavage): 153.5 ± 7.7 mg/dL
blood level of glucose [1, 2]: markedly lowered
blood level of insulin [1, 2]: markedly lowered
Blood parameters Adiponectin ([1]; 20 mg/kg/day oral gavage): 3.277 ± 0.052^f μg/mL
Blood parameters FFA ([1]; 20 mg/kg/day oral gavage): 0.95 ± 0.04^f mEq/L
Blood parameters Leptin ([1]; 20 mg/kg/day oral gavage): 1.372 ± 0.029^f ng/mL
Blood parameters TC ([1]; 20 mg/kg/day oral gavage): 144.1 ± 4.0 mg/dL
blood level of glucose [1, 3]: markedly lowered
blood level of insulin [1, 3]: markedly lowered
Blood parameters Adiponectin ([1]; 40 mg/kg/day oral gavage): 3.628 ± 0.034^f μg/mL
Blood parameters FFA ([1]; 40 mg/kg/day oral gavage): 0.86 ± 0.09^f mEq/L
Blood parameters Leptin ([1]; 40 mg/kg/day oral gavage): 1.321 ± 0.008^f ng/mL
Blood parameters TC ([1]; 40 mg/kg/day oral gavage): 142.9 ± 6.6 mg/dL
blood level of glucose [1, 4]: markedly lowered
blood level of insulin [1, 4]: markedly lowered
circulating TG levels ([1]; oral gavage 4 weeks (formula I 10, 20, 40; Rosi 10; Feno 250 mg/kg/day), vs HF group): decreased
hepatocellular ballooning mean score (hepatocytes of HFD mice; 10 mg/kg/day oral gavage): 0.7±0.1
hepatocellular ballooning mean score (hepatocytes of HFD mice; 20 mg/kg/day oral gavage): 0.5±0.2
hepatocellular ballooning mean score (hepatocytes of HFD mice; 40 mg/kg/day oral gavage): 0.4±0.1
liver mRNA level of PEPCK (PEPCK; 10 mg/kg/day oral gavage): significantly reduced
liver mRNA level of PEPCK (PEPCK; 20 mg/kg/day oral gavage): significantly reduced
liver mRNA level of PEPCK (PEPCK; 40 mg/kg/day oral gavage): significantly reduced
liver mRNA level of GPAT (GPAT; 10 mg/kg/day oral gavage): significantly reduced
liver mRNA level of GPAT (GPAT; 20 mg/kg/day oral gavage): significantly reduced
liver mRNA level of GPAT (GPAT; 40 mg/kg/day oral gavage): significantly reduced
